Assay results as given in patent US11345681B1, “Inhibitors of fibroblast growth factor receptor kinases” (Kinnate Biopharma Inc., priority 2020, dated 2022).

Target: Wild type FGFR2 (Homo sapiens (Human), UniProt P21802)
Assay: FGFR2 kinase assay (fluorescence-based microfluidic mobility shift assay)
Format: biochemical
Settings: wild type FGFR2 0.06 nM, 100 μM ATP, 80 minutes at room temperature

Wild type FGFR2, sequence (P21802 22-821): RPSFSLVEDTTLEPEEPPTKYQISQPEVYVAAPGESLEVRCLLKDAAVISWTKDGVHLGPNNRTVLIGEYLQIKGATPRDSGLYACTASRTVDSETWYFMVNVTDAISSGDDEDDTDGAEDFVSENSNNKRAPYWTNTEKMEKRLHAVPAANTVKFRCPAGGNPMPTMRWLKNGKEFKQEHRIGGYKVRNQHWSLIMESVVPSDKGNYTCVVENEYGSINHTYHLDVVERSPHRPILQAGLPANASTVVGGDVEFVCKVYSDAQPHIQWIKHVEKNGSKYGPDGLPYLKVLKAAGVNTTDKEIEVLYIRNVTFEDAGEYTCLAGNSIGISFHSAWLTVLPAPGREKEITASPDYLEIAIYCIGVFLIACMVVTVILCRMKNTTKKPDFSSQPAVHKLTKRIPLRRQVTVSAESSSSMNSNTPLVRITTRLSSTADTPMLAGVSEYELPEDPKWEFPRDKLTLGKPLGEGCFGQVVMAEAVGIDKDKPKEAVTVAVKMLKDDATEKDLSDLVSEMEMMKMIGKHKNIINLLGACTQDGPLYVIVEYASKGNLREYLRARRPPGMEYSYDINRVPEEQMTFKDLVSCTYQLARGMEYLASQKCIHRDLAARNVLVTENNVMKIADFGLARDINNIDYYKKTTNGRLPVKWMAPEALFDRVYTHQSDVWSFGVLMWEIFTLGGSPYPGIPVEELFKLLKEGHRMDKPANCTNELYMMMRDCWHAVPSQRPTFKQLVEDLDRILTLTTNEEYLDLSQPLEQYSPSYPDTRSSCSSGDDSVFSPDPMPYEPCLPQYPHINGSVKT

IC50 (class symbols) [nM]	IC50 (given as numeric bound) [nM]	Structure (SMILES)
≤ 100	–	C=CC(=O)N1C[C@@H](n2nc(C#Cc3c(Cl)cc4c(ncn4CC)c3F)c(C(N)=O)c2NC)C[C@@H]1COC [Example 99, 3-[2-(6-Chloro-1-ethyl-4-fluoro-1,3-benzodiazol-5-yl)ethynyl]-1-[(3S,5R)-5-(methoxymethyl)-1-(prop-2-enoyl)pyrrolidin-3-yl]-5-(methylamino)pyrazole-4-carboxamide]
≤ 100	–	C=CC(=O)N1C[C@@H](n2nc(C#Cc3cc4ncn(C)c4c(F)c3F)c(C(N)=O)c2NC)C[C@@H]1COC [Example 101, 3-[2-(6,7-Difluoro-1-methyl-1,3-benzodiazol-5-yl)ethynyl]-1-[(3S,5R)-5-(methoxymethyl)-1-(prop-2-enoyl)pyrrolidin-3-yl]-5-(methylamino)pyrazole-4-carboxamide]
≤ 100	–	C=CC(=O)N1C[C@@H](n2nc(C#Cc3nc4ccccc4s3)c(C(N)=O)c2NC)C[C@@H]1COC [Example 102, 3-[2-(1,3-Benzothiazol-2-yl)ethynyl]-1-[(3S,5R)-5-(methoxymethyl)-1-(prop-2-enoyl)pyrrolidin-3-yl]-5-(methylamino)pyrazole-4-carboxamide]
–	> 500	C=CC(=O)N1C[C@@H](n2nc(C#Cc3cn4ccccc4n3)c(C(N)=O)c2NC)C[C@@H]1COC [Example 104, 3-(2-[Imidazo[1,2-a]pyridin-2-yl]ethynyl)-1-[(3S,5R)-5-(methoxymethyl)-1-(prop-2-enoyl)pyrrolidin-3-yl]-5-(methylamino)pyrazole-4-carboxamide]
≤ 100	–	C=CC(=O)N1C[C@@H](n2nc(C#Cc3c(F)cc4c(ncn4CC)c3F)c(C(N)=O)c2NCC2CC2)C[C@@H]1COC [Example 109, 5-[(Cyclopropylmethyl)amino]-3-[2-(1-ethyl-4,6-difluoro-1,3-benzodiazol-5-yl)ethynyl]-1-[(3S,5R)-5-(methoxymethyl)-1-(prop-2-enoyl)pyrrolidin-3-yl]pyrazole-4-carboxamide]
≤ 100	–	C=CC(=O)N1C[C@@H](n2nc(C#Cc3c(F)cc4c(ncn4CC)c3F)c(C(N)=O)c2NCCCN2CCOCC2)C[C@@H]1COC [Example 111, 3-[2-(1-Ethyl-4,6-difluoro-1,3-benzodiazol-5-yl)ethynyl]-1-[(3S,5R)-5-(methoxymethyl)-1-(prop-2-enoyl)pyrrolidin-3-yl]-5-[[3-(morpholin-4-yl)propyl]amino]pyrazole-4-carboxamide]
≤ 100	–	C=CC(=O)N1C[C@@H](n2nc(C#Cc3cc4ncn(C)c4c(F)c3Cl)c(C(N)=O)c2NC)C[C@@H]1COC [Example 113, 3-[2-(6-chloro-7-fluoro-1-methyl-1,3-benzodiazol-5-yl)ethynyl]-1-[(3S,5R)-5-(methoxymethyl)-1-(prop-2-enoyl)pyrrolidin-3-yl]-5-(methylamino)pyrazole-4-carboxamide]
≤ 100	–	C=CC(=O)N1C[C@@H](n2nc(C#Cc3c(F)cc4c(ncn4CC)c3F)c(C(N)=O)c2NCCO)C[C@@H]1COC [Example 116, 3-[2-(1-Ethyl-4,6-difluoro-1,3-benzodiazol-5-yl)ethynyl]-5-[(2-hydroxyethyl)amino]-1-[(3S,5R)-5-(methoxymethyl)-1-(prop-2-enoyl)pyrrolidin-3-yl]pyrazole-4-carboxamide]
≤ 100	–	C=CC(=O)N1CC[C@H](n2nc(C#Cc3c(F)cc4c(ncn4CC)c3F)c(C(N)=O)c2NCC2CC2)C1 [Example 118, 5-[(Cyclopropylmethyl)amino]-3-[2-(1-ethyl-4,6-difluoro-1,3-benzodiazol-5-yl)ethynyl]-1-[(3S)-1-(prop-2-enoyl)pyrrolidin-3-yl]pyrazole-4-carboxamide]
≤ 100	–	C=CC(=O)N1C[C@@H](n2cc(C#Cc3cc(F)c4c(c3)ncn4C)c(C(N)=O)c2NC)C[C@@H]1COC [Example 121, 1-((3S,5S)-1-Acryloyl-5-(methoxymethy)pyrrolidin-3-yl)-3-((7-fluoro-1-methyl-1H-benzo[d]imidazol-5-yl)ethynyl)-5-(methylamino)-1H-pyrazole-4-carboxamide]
100 to 1000	–	C=CC(=O)N1C[C@@H](n2nc(C#Cc3cn4ncnc4cc3F)c(C(N)=O)c2NC)C[C@@H]1COC [Example 122, 3-(2-[7-Fluoro-[1,2,4]triazolo[1,5-a]pyridin-6-yl]ethynyl)-1-[(3S,5R)-5-(methoxymethyl)-1-(prop-2-enoyl)pyrrolidin-3-yl]-5-(methylamino)pyrazole-4-carboxamide]
≤ 100	–	C=CC(=O)N1CC[C@H](n2nc(C#Cc3c(F)cc4c(ncn4CC)c3F)c(C(N)=O)c2NCCO)C1 [Example 123, 3-[2-(1-Ethyl-4,6-difluoro-1,3-benzodiazol-5-yl)ethynyl]-5-[(2-hydroxyethyl)amino]-1-[(3S)-1-(prop-2-enoyl)pyrrolidin-3-yl]pyrazole-4-carboxamide]

The remaining lines, values behind:

Structure (SMILES)	IC50 (class symbols) [nM]	IC50 (given as numeric bound) [nM]
C=CC(=O)N1C[C@@H](n2nc(C#Cc3cc4nc(C)[nH]c4cc3Cl)c(C(N)=O)c2NC)C[C@@H]1COC [Example 98, 3-[2-(6-Chloro-2-methyl-1R-1,3-benzodiazol-5-yl)ethynyl]-1-[(3S,5R)-5-(methoxymethyl)-1-(prop-2-enoyl)pyrrolidin-3-yl]-5-(methylamino)pyrazole-4-carboxamid]	≤ 100	–
C=CC(=O)N1C[C@@H](n2nc(C#Cc3c(Cl)cc4c(ncn4C)c3F)c(C(N)=O)c2NC)C[C@@H]1COC [Example 100, 3-[2-(6-Chloro-4-fluoro-1-methyl-1,3-benzodiazol-5-yl)ethynyl]-1-[(3S,5R)-5-(methoxymethyl)-1-(prop-2-enoyl)pyrrolidin-3-yl]-5-(methylamino)pyrazole-4-carboxamide]	≤ 100	–
C=CC(=O)N1C[C@@H](n2nc(C#Cc3ccc4scnc4c3)c(C(N)=O)c2NC)C[C@@H]1COC [Example 103, 3-[2-(1,3-Benzothiazol-5-yl)ethynyl]-1-[(3S,5R)-5-(methoxymethyl)-1-(prop-2-enoyl)pyrrolidin-3-yl]-5-(methylamino)pyrazole-4-carboxamide]	≤ 100	–
C=CC(=O)N1C[C@@H](n2nc(C#Cc3ccc4ncnn4c3)c(C(N)=O)c2NC)C[C@@H]1COC [Example 106, 1-[(3S,5R)-5-(Methoxymethyl)-1-(Prop-2-enoyl)pyrrolidin-3-yl]-5-(methylamino)-3-(2-[[1,2,4]triazolo[1,5-a]pyridin-6-yl]ethynyl)pyrazole-4-carboxamide]	–	> 500
C=CC(=O)N1C[C@@H](n2nc(C#Cc3ccn4ncnc4c3)c(C(N)=O)c2NC)C[C@@H]1COC [Example 107, 1-[(3S,5R)-5-(Methoxymethyl)-1-(prop-2-enoyl)pyrrolidin-3-yl]-5-(methylamino)-3-(2-[[1,2,4]triazolo[1,5-c]pyridin-7-yl]ethynyl)pyrazole-4-carboxamide]	100 to 1000	–
C=CC(=O)N1C[C@@H](n2nc(C#Cc3ccc4ocnc4c3)c(C(N)=O)c2NC)C[C@@H]1COC [Example 108, 3-[2-(1,3-Benzoxazol-5-yl)ethynyl]-1-[(3S,5R)-5-(methoxymethyl)-1-(prop-2-enoyl)pyrrolidin-3-yl]-5-(methylamino)pyrazole-4-carboxamide]	≤ 100	–
C=CC(=O)N1CC[C@H](n2nc(C#Cc3c(F)cc4c(ncn4CC)c3F)c(C(N)=O)c2NCCN2CCOCC2)C1 [Example 112, 3-[2-(1-Ethyl-4,6-difluoro-1,3-benzodiazol-5-yl)ethynyl]-5-[[2-(morpholin-4-yl)ethyl]amino]-1-[(3S)-1-(prop-2-enoyl)pyrrolidin-3-yl]pyrazole-4-carboxamide]	≤ 100	–
C=CC(=O)N1C[C@@H](n2nc(C#Cc3nc4ccccc4o3)c(C(N)=O)c2NC)C[C@@H]1COC [Example 114, 3-[2-(1,3-Benzoxazol-2-yl)ethynyl]-1-[(3S,5R)-5-(methoxymethyl)-1-(prop-2-enoyl)pyrrolidin-3-yl]-5-(methylamino)pyrazole-4-carboxamide]	≤ 100	–
C=CC(=O)N1C[C@@H](n2nc(C#Cc3cc4ncoc4cc3F)c(C(N)=O)c2NC)C[C@@H]1COC [Example 115, 3-[2-(6-Fluoro-1,3-benzoxazol-5-yl)ethynyl]-1-[(3S,5R)-5-(methoxymethyl)-1-(prop-2-enoyl)pyrrolidin-3-yl]-5-(methylamino)pyrazole-4-carboxamide]	≤ 100	–
C=CC(=O)N1C[C@@H](n2nc(C#Cc3c(F)cc4c(ncn4CC)c3F)c(C(N)=O)c2NCCOC)C[C@@H]1COC [Example 117, 3-[2-(1-Ethyl-4,6-difluoro-1,3-benzodiazol-5-yl)ethynyl]-5-[(2-methoxyethyl)amino]-1-[(3S,5R)-5-(methoxymethyl)-1-(prop-2-enoyl)pyrrolidin-3-yl]pyrazole-4-carboxamide]	≤ 100	–
C=CC(=O)N1CC[C@H](n2nc(C#Cc3c(F)cc4c(ncn4CC)c3F)c(C(N)=O)c2NCCOC)C1 [Example 119, 3-[2-(1-Ethyl-4,6-difluoro-1,3-benzodiazol-5-yl)ethynyl]-5-[(2-methoxyethyl)amino]-1-[(3S)-1-(prop-2-enoyl)pyrrolidin-3-yl]pyrazole-4-carboxamide]	≤ 100	–
C=CC(=O)N1CC[C@H](n2nc(C#Cc3c(F)cc4c(ncn4CC)c3F)c(C(N)=O)c2NCCCN2CCOCC2)C1 [Example 120, 3-[2-(1-ethyl-4,6-difluoro-1,3-benzodiazol-5-yl)ethynyl]-5-[[3-(morpholin-4-yl)propyl]amino]-1-[(3S)-1-(prop-2-enoyl)pyrrolidin-3-yl]pyrazole-4-carboxamide]	≤ 100	–
C=CC(=O)N1C[C@@H](n2nc(C#Cc3cc4ncn(CC)c4c(F)c3F)c(C(N)=O)c2NC)C[C@@H]1COC [Example 125, 3-[2-(1-Ethyl-6,7-difluoro-1,3-benzodiazol-5-yl)ethynyl]-1-[(3S,5R)-5-(methoxymethyl)-1-(prop-2-enoyl)pyrrolidin-3-yl]-5-(methylamino)pyrazole-4-carboxamide]	≤ 100	–
C=CC(=O)N1C[C@@H](n2nc(C#Cc3cc4ncn(CC)c4c(F)c3Cl)c(C(N)=O)c2NC)C[C@@H]1COC [Example 126, 3-[2-(6-Chloro-1-ethyl-7-fluoro-1,3-benzodiazol-5-yl)ethynyl]-1-[(3S,5R)-5-(methoxymethyl)-1-(prop-2-enoyl)pyrrolidin-3-yl]-5-(methylamino)pyrazole-4-carboxamide]	≤ 100	–
